Experimental data as given in patent US20250101027A1, “ORGANIC COMPOUND, LIGHT-EMITTING DEVICE, LIGHT-EMITTING APPARATUS, AND ELECTRONIC APPLIANCE” (SEMICONDUCTOR ENERGY LABORATORY CO., LTD., priority 2023, published 2025).
Values after ≈ are worked out from the molar mass of the structure shown.

Experiment: Solubility test in water by LC-MS analysis
Format: physicochemical
Conditions: for peak area value derived from the compound through the LC-MS analysis (solubility test in water): ultrasonic waves five minutes, filtrate diluted five times with acetonitrile, one atmosphere, room temperature
Experimental: Next, a solubility test of PrdP2Phen was performed. Note that the solubility test was conducted at a pressure of one atmosphere, at room temperature (RT).
In the LC-MS analysis, liquid chromatography (LC) separation was carried out with ACQUITY UPLC manufactured by Waters Corporation, and MS analysis (mass spectrometry) was carried out with Xevo G2 Tof MS manufactured by Waters Corporation. Acquity UPLC BEH C8 (2.1×100 mm, 1.7 μm) was used as a column for the LC separation. Acetonitrile was used for Mobile Phase A and a 0.1% aqueous solution of formic acid was used for Mobile Phase B. The injection amount of the sample was 5.0 μL. Note that in the analysis, the wavelength of a photodiode array detector was set to 263 nm±1 nm.
(§1) In a 5-mL sample bottle, I mg of PrdP2Phen was put and 1 mL of water was added thereto. This mixture was irradiated with ultrasonic waves for five minutes. This mixture was filtered through a membrane filter to remove the solid, and the resulting filtrate was diluted by five times with acetonitrile. The obtained solution was subjected to LC-MS analysis.
In a 5-mL sample bottle, 1 mg of Pyrrd-Phen was put and 2 mL of toluene was added thereto. This mixture was irradiated with ultrasonic waves for five minutes. After it was confirmed that the solid was completely dissolved, this solution was diluted by 5 times with acetonitrile, whereby the concentration of the solution was adjusted to 100 mg/L. This solution was diluted with a 3:7 toluene-acetonitrile mixed solvent, whereby a solution with a concentration of 20 mg/L, a solution with a concentration of 10 mg/L, and a solution with a concentration of 5 mg/L were prepared. The prepared solutions were subjected to LC-MS analysis, and the peak area values derived from Pyrrd-Phen, which were obtained at the respective solution concentrations, were used to form calibration curves.
Next, the water solubility of Pyrrd-Phen was measured.
as §1, with “bottle, 1” for “bottle, I”, “of Pyrrd-Phen” for “of PrdP2Phen”
Next, a solubility test of Hid-PrdPPhen was performed. Note that the solubility test was conducted at a pressure of one atmosphere at room temperature (RT).
In the LC-MS analysis, liquid chromatography (LC) separation was carried out with ACQUITY UPLC manufactured by Waters Corporation, and MS analysis (mass spectrometry) was carried out with Xevo G2 Tof MS manufactured by Waters Corporation. Acquity UPLC BEH C8 (2.1×100 mm, 1.7 μm) was used as a column for the LC separation. […]

[1] = 1 mg in 1 mL of water, filtered

| water solubility (in words) (conclusion from LC-MS solubility test) | solubility at 5 min (thermodynamic from solid, from calibration curve and LC-MS signal intensity, 1 mg in 1 mL of water, sonicated, filtered) [µg/mL] | peak area value derived from the compound through the LC-MS analysis (solubility test in water) [1] | SMILES |
| --- | --- | --- | --- |
| high water solubility | 59 (≈ 185 µM) | – | c1cc(N2CCCC2)c2ccc3c(N4CCCC4)ccnc3c2n1 [Pyrrd-Phen, 4,7-di-1-pyrrolidinyl-1,10-phenanthroline] |
| – | – | failed to be obtained | c1cc(-c2ccc(N3CCCC3)cc2)c2ccc3c(-c4ccc(N5CCCC5)cc4)ccnc3c2n1 [PrdP2Phen, 4,7-bis[4-(1-pyrrolidinyl)phenyl]-1,10-phenanthroline] |
| – | – | failed to be obtained | c1cc(-c2ccc(N3CCCC3)cc2)c2ccc3c(N4CC5CCCCC5C4)ccnc3c2n1 (stereo not shown) [Hid-PrdPPhen, 4-(2,3,3a,4,5,6,7,7a-octahydro-1H-isoindol-2-yl)-7-[4-(I-pyrrolidinyl)phenyl]-1,10-phenanthroline] |
